In patent US11304944B2, “MetAP2 inhibitors and methods of treating obesity” (SynDevRx, Inc., priority 2013, dated 2022):

Legend:
DIO C57Bl6 mice = assay: In vivo testing DIO C57Bl6 mice: weight changes, food consumption, body composition (Compound 16 vs TNP-470); conditions: for Body Weight Day 33: sc; for Total fat as a percentage of BW / B.W. / Epididymal Fat / Inguinal Fat / Liver / Retroperitoneal Fat / Total Fat: Day 33
Experimental: C57Bl6 male mice (N=6) thirteen weeks old with an average of weight of 34 g were ad libitum fed TD.06414 a high fat diet composed of 60% Kcal from fat (Harlan diet). On study day 1 animals were randomized into groups so that the average weight of each group was 33.9 g. […] Animals were weighed every other day. Food consumption was measured weekly. On day 33 gross pathology was performed to determine body composition.

DIO Levin rats = assay: In vivo testing DIO Levin rats: weight changes, food consumption, insulin, leptin levels; conditions: for Final BW: after 68 days, 60% fat diet
Experimental: CKD-732 as referred to herein is the hemitartrate salt of the following structure:
Test articles were administered subcutaneously on an every 4 day (q4d) schedule in a diet-induced obesity (DIO) Levin-DS rat model. […] A dietary intervention (Standard Chow, Labdiet 5001; 3.4 kcal/g) was included to compare to the drug interventions. Upon arrival at three weeks of age, the male rats received ad libitum pellets of Harlan Diet TD.06414, 60% of calories from fat, 21% of calories from carbohydrate; 5.1 kcal/g. Prior to dosing the rats were randomized into groups of three animals with an average body weight of 595 gm. […] Compound 1 in the form of the hemitartrate and CKD-732 in the form of the hemitartrate were dissolved in ethanol prior to dilution with vehicle. All doses were administered at a volume of 5.0 ml/kg. […] On day 1, first dose, the rats were 14 weeks of age. Also on day 1, Group 2 was switched from the high fat diet to a standard chow diet; the remaining groups were maintained on a high fat diet for the duration of the study.
Animals were weighed every other day. Food consumption was measured weekly. On an approximately weekly basis throughout the study, blood samples were taken for assessment of serum chemistries including glucose and insulin. On Day 48 all rats underwent a 4 hour fasted Oral Glucose Tolerance Test (OGTT). Animals were dosed orally (per os, PO) at 8 mL/kg 25% glucose (2 g/kg). On day 68, gross pathology was performed to determine body composition.

[1] = 0.6 mg/kd (so in the source) q4d sc

## poly[HPMA-co-MA-GFLG-N-(trans-4-aminocyclohexyl)carbamoylfumagillol] [Compound 16]
DIO C57Bl6 mice; 0.5 mg/kg/day, qod
  Body Weight Day 33: 30.4 g
DIO C57Bl6 mice; 1 mg/kg qod
  Total fat as a percentage of BW: 8.2%
DIO C57Bl6 mice; 1.5 mg/kg/day, q4d
  Body Weight Day 33: 27.4 g
DIO C57Bl6 mice; 6 mg/kg q4d
  B.W.: 27.4 grams
  Epididymal Fat: 0.78 grams
  Inguinal Fat: 0.53 grams
  Liver: 1.17 grams
  Retroperitoneal Fat: 0.23 grams
  Total Fat: 1.55 grams
  Total fat as a percentage of BW: 5.6%
DIO C57Bl6 mice; FIG. 1
  degree of weight loss compared with TNP-470: superior to TNP-470 in the degree of weight loss
DIO C57Bl6 mice; FIG. 2
  food consumption compared with TNP-470: causes a greater reduction in food consumption than TNP-470
DIO C57Bl6 mice; q4d dosing regimen (FIG. 1)
  decrease in weight: 19%
DIO C57Bl6 mice; qod (Cmpd 16 1 mg/kg qod)
  B.W.: 30.4 grams
  Epididymal Fat: 1.18 grams
  Inguinal Fat: 0.92 grams
  Liver: 1.10 grams
  Retroperitoneal Fat: 0.42 grams
  Total Fat: 2.52 grams
DIO Levin rats; 0.3 mg/kg q4d sc
  Avg. Insulin Day 7: 2.27 ng/mL
  Avg. Insulin Day 15: 1.65 ng/mL
  Avg. Insulin Day 23: 1.66 ng/mL
  Avg. Insulin Day 48: 1.70 ng/mL
  Avg. Insulin Pre-dosing: 1.76 ng/mL
  Group Average Food Consumption Day 1-8: 125.2 g
  Group Average Food Consumption Day 9-15: 125.9 g
  Group Average Food Consumption Day 16-23: 128.2 g
  Group Average Food Consumption Day 24-30: 129.3 g
  Group Average Food Consumption Day 31-36: 122.4 g
  Group Average Food Consumption Day 37-43: 131.9 g
  Group Average Food Consumption Day 44-50: 135.6 g
  Group Average Food Consumption Day 51-57: 134.5 g
  Group Average Food Consumption Day 58-63: 134.2 g
  Group Average Food Consumption Day 63-68: 57.6 g
  Leptin Levels Day 29: 3.30
  Leptin Levels Pre-dose: 2.53
  Leptin Levels, Day 29, % Change from Baseline: 30.3%
  Final BW: 727.3 g
DIO Levin rats; [1]
  Avg. Insulin Day 7: 2.09 ng/mL
  Avg. Insulin Day 15: 1.38 ng/mL
  Avg. Insulin Day 23: 1.72 ng/mL
  Avg. Insulin Day 48: 1.91 ng/mL
  Avg. Insulin Pre-dosing: 2.95 ng/mL
  Group Average Food Consumption Day 1-8: 121.2 g
  Group Average Food Consumption Day 9-15: 101.0 g
  Group Average Food Consumption Day 16-23: 109.7 g
  Group Average Food Consumption Day 24-30: 122.1 g
  Group Average Food Consumption Day 31-36: 125.8 g
  Group Average Food Consumption Day 37-43: 116.6 g
  Group Average Food Consumption Day 44-50: 118.2 g
  Group Average Food Consumption Day 51-57: 123.1 g
  Group Average Food Consumption Day 58-63: 130.7 g
  Group Average Food Consumption Day 63-68: 45.9 g
DIO Levin rats; 1 mg/kg q4d sc
  Leptin Levels Day 29: 4.53
  Leptin Levels Pre-dose: 4.67
  Leptin Levels, Day 29, % Change from Baseline: −2.9%
DIO Levin rats; 1.0 mg/kg q4d sc
  Final BW: 668.6 g
DIO Levin rats; 3 mg/kg Q4D, end of the study
  lower body weight than rats on the standard chow diet: 6.2%
  lower body weight than the vehicle control: 22.1%
DIO Levin rats; 3 mg/kg q4d sc
  Avg. Insulin Day 7: 0.66 ng/mL
  Avg. Insulin Day 15: 0.54 ng/mL
  Avg. Insulin Day 23: 1.26 ng/mL
  Avg. Insulin Day 48: 1.08 ng/mL
  Avg. Insulin Pre-dosing: 1.49 ng/mL
  Group Average Food Consumption Day 1-8: 97.3 g
  Group Average Food Consumption Day 9-15: 63.2 g
  Group Average Food Consumption Day 16-23: 123.4 g
  Group Average Food Consumption Day 24-30: 108.7 g
  Group Average Food Consumption Day 31-36: 102.6 g
  Group Average Food Consumption Day 37-43: 105.5 g
  Group Average Food Consumption Day 44-50: 129.9 g
  Group Average Food Consumption Day 51-57: 115.2 g
  Group Average Food Consumption Day 58-63: 128.0 g
  Group Average Food Consumption Day 63-68: 43.3 g
  Leptin Levels Day 29: 1.36
  Leptin Levels Pre-dose: 2.47
  Leptin Levels, Day 29, % Change from Baseline: −45.0%
DIO Levin rats; 3.0 mg/kg q4d sc
  Final BW: 604.7 g
DIO Levin rats; 6 mg, q7d sc
  Avg. Insulin Day 7: 1.96 ng/mL
  Avg. Insulin Day 15: 1.00 ng/mL
  Avg. Insulin Day 23: 1.11 ng/mL
  Avg. Insulin Day 48: 1.32 ng/mL
  Avg. Insulin Pre-dosing: 3.06 ng/mL
  Group Average Food Consumption Day 1-8: 105.2 g
  Group Average Food Consumption Day 9-15: 48.3 g
  Group Average Food Consumption Day 16-23: 43.9 g
  Group Average Food Consumption Day 24-30: 139.8 g
  Group Average Food Consumption Day 31-36: 117.4 g
  Group Average Food Consumption Day 37-43: 126.3 g
  Group Average Food Consumption Day 44-50: 81.2 g
  Group Average Food Consumption Day 51-57: 107.5 g
  Group Average Food Consumption Day 58-63: 107.7 g
  Group Average Food Consumption Day 63-68: 19.8 g
  Leptin Levels Day 29: 2.00
  Leptin Levels Pre-dose: 3.93
  Leptin Levels, Day 29, % Change from Baseline: −49.2%
DIO Levin rats; 6.0 mg/kg q7d sc
  Final BW: 596.7 g
DIO Levin rats; FIG. 18
  change in leptin levels from baseline versus dose: dose-dependent response
DIO Levin rats; day 68, FIG. 12
  weight loss versus fumagillol exposure, compared to Compound 1 or CKD-732: greater weight loss with significantly lower fumagillol exposure
